Test results reported in PubChem BioAssay (NCI).
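Following 48 hours of exposure in 96-well plates, responses at five concentrations were used to interpolate endpoints linearly. At the GI50, growth is halved. TGI: concentration producing complete growth inhibition.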

Legend:
Assay in all cases: growth of human tumour cells (NCI), 48 h
M14 melanoma = test system: M14 melanoma
HT29 colon = test system: HT29 colon
CAKI-1 renal = test system: CAKI-1 renal
MALME-3M melanoma = test system: MALME-3M melanoma
U251 CNS = test system: U251 CNS
HOP-92 NSCLC = test system: HOP-92 NSCLC
TK-10 renal = test system: TK-10 renal
SK-MEL-5 melanoma = test system: SK-MEL-5 melanoma
K-562 leukemia = test system: K-562 leukemia
A549 NSCLC = test system: A549 NSCLC

Row | Structure (SMILES) | GI50 (M14 melanoma) [µM] | TGI (M14 melanoma) [µM] | GI50 (HT29 colon) [µM] | TGI (HT29 colon) [µM] | GI50 (CAKI-1 renal) [µM] | TGI (CAKI-1 renal) [µM] | GI50 (MALME-3M melanoma) [µM] | TGI (MALME-3M melanoma) [µM] | GI50 (U251 CNS) [µM] | TGI (U251 CNS) [µM] | GI50 (HOP-92 NSCLC) [µM] | TGI (HOP-92 NSCLC) [µM] | GI50 (TK-10 renal) [µM] | TGI (TK-10 renal) [µM] | GI50 (SK-MEL-5 melanoma) [µM] | TGI (SK-MEL-5 melanoma) [µM] | GI50 (K-562 leukemia) [µM] | TGI (K-562 leukemia) [µM] | GI50 (A549 NSCLC) [µM] | TGI (A549 NSCLC) [µM]
1 | Oc1ccc(C(c2ccc(O)cc2)c2ccc(Cl)cn2)cc1 | 21.3 | > 100 | 4.97 | > 100 | 22.1 | > 100 | 24.6 | > 100 | 42.3 | > 100 | 0.266 | 0.947 | 0.0951 | 0.525 | 15.6 | 34.5 | 13.5 | > 100 | 1.21 | > 100
2 | COc1ccc2c(c1)C(=O)c1c-2n(CCCN=[N+]=[N-])c(=O)c2cc(N(C)C)ccc12 | > 100 | > 100 | > 100 | > 100 | > 100 | > 100 | > 100 | > 100 | 19.5 | > 100 | 2.87 | 24.6 | > 100 | > 100 | 23.8 | > 100 | > 100 | > 100 | > 100 | > 100
3 | CC(=O)Nc1ccc(C(=O)NN2C(=O)C(Cl)C2c2ccc([N+](=O)[O-])cc2)cc1 (configuration not stated) | – | > 100 | – | > 100 | – | > 100 | – | > 100 | – | > 100 | – | > 100 | – | > 100 | – | > 100 | – | > 100 | – | > 100
4 | CCCNCCCC(NC(C)=O)C(=O)NCc1ccccc1 (configuration not stated) | – | > 100 | – | > 100 | – | > 100 | – | > 100 | – | > 100 | – | > 100 | – | > 100 | – | > 100 | – | > 100 | – | > 100
5 | CCCCCCCNc1nc(C(=O)OCC)ncc1-c1ccc(C(F)(F)F)cc1 | 35.8 | > 100 | 41.5 | > 100 | 38.2 | > 100 | 41.8 | > 100 | 34.1 | > 100 | 24.8 | > 100 | 51.2 | > 100 | 20.6 | 51.9 | 36.8 | > 100 | > 100 | > 100
6 | CC(C)C1(O)C(c2ccccc2)=C(c2ccccc2)C(c2ccccc2)=C1c1ccccc1 | – | 22.4 | – | 16 | – | > 100 | – | 30.9 | – | 18.7 | – | 50.2 | – | 56.3 | – | 22.4 | – | > 100 | – | 54.6
7 | COc1ccc(N2Cc3cnc(Nc4ccccc4)nc3N([C@@H]3CC[C@@H](O)C3)C2=O)cc1 | 3.7 | > 25 | 3.57 | > 25 | 1.36 | > 9.74 | 6.89 | > 25 | 1.01 | > 25 | 1.16 | 10.7 | 1.54 | 12.9 | 9.25 | > 25 | 5.67 | > 25 | 5.16 | > 25
8 | O=c1[nH]c(=O)n([C@@H]2C[C@H](CO)[C@H](O)C2)cc1/C=C/Br | – | > 100 | – | > 100 | – | > 100 | – | > 100 | – | > 100 | – | > 100 | – | > 100 | – | > 100 | – | > 100 | – | > 100
9 | CS(=O)(=O)OCCN1CCN(C(=O)c2cccc3c(Nc4ccc(S(=O)(=O)N=C(N)N)cc4)c4ccccc4nc23)CC1 | – | > 100 | – | > 100 | – | > 100 | – | > 100 | – | > 100 | – | > 100 | – | > 100 | – | > 100 | – | > 100 | – | > 100
10 | CC(=O)NNc1nc(C)c(C(=O)NNC(=O)C(=O)Nc2c(C)cccc2C)s1 | – | > 100 | – | > 100 | – | > 100 | – | > 100 | – | > 100 | – | > 100 | – | > 100 | – | > 100 | – | > 100 | – | > 100
11 | CN1CCN(c2ccc(NC(=O)c3nc4ccc5[nH]ncc5c4c4c3CCCC4)cc2C(F)(F)F)CC1 | 0.861 | 1.71 | 1.02 | 3.06 | 1.52 | 7.72 | 0.76 | 1.64 | 0.926 | 1.77 | 0.658 | 1.34 | 1.04 | 2.2 | 1.53 | 5.23 | 0.968 | 2.11 | 1.12 | 3.05
12 | COc1ccc(-c2cc(=O)c3c(C)cc(C)nc3[nH]2)cc1 | – | > 100 | – | > 100 | – | 82.9 | – | 88 | 90.7 | > 100 | – | > 100 | – | 99.2 | 17.6 | 33.1 | – | > 100 | – | > 100
13 | COc1ccc(Nc2ncc(Br)c(NCCCNC(=O)C3CCC3)n2)cc1 | 31.5 | > 100 | 18.7 | 85.4 | 5.21 | 31.6 | 24.6 | > 100 | 12.4 | > 100 | 5.58 | 39.8 | 5.46 | 38.7 | 13 | 35.1 | 9.27 | > 100 | 14.3 | 37.8
14 | O=C1C=C(NCCNC(=S)Nc2ccccc2)c2nccc3c2c1nc1ccccc13 | 39.3 | > 100 | 44.6 | > 100 | 33.6 | > 100 | 30.1 | > 100 | 58.9 | > 100 | > 100 | > 100 | 51.9 | > 100 | 27.5 | > 100 | 35.1 | > 100 | 44.7 | > 100
15 | Cc1ccc(/C(=N\N=C(N)N)c2ccccc2)cc1 | 0.285 | 0.977 | 0.344 | 5.73 | 0.843 | 20.1 | 0.391 | 17.3 | 0.365 | 11.5 | 1.68 | 20.2 | 0.549 | 15.1 | 0.353 | 1.73 | 0.339 | > 100 | 0.433 | 17.3
16 | C=C1SC(=Nc2c(C)cc(C)cc2C)N(C(=O)c2sc3ccccc3c2Cl)C12CCCCC2 | > 100 | > 100 | 58.5 | > 100 | 10.7 | > 100 | > 100 | > 100 | > 100 | > 100 | 39.1 | > 100 | > 100 | > 100 | > 100 | > 100 | 54.5 | > 100 | > 100 | > 100
17 | CCCCC1CC(c2cccc([N+](=O)[O-])c2)=NO1 (configuration not stated) | – | > 100 | – | > 100 | – | > 100 | – | > 100 | – | > 100 | – | > 100 | – | > 100 | – | > 100 | – | > 100 | – | > 100
18 | C[C@H](NC(=O)[C@@H]1CSSC[C@@H](NC(=O)c2nc3ccccc3cc2O)C(=O)NCC(=O)N1C)c1ccccc1 | 0.318 | 9.76 | 1.13 | 3.35 | 7.24 | 18.5 | 6.08 | 14 | 2.38 | 7.46 | 9.69 | 18.6 | 8.06 | 15.5 | 0.582 | 3.82 | 0.663 | 3.13 | 7.06 | 15.8
